Measurements: US7579488B2 (Eli Lilly and Company, priority 2003, dated 2009)
Where “and” joins values, the source holds several entries; their conditions need not be identical. Identical values can stand only once.

What was measured:
Assay type in all cases: cell-based
RXR-VDR heterodimer = molecular target: T1, RXR-VDR heterodimer (Homo sapiens, UniProt P11473); assay: RXR-VDR heterodimerization assay (SaOS-2 cells); conditions: Gal4-RXR-DEF/VP16-VDR-LBD luciferase reporter, several values in a cell separated by /
T1 construct: Add the Gal4-RXR-DEF and VP16-VDR-LBD; expressed in transfected cells; host or cells: SaOS-2 cells
T1 sequence (P11473 127-423 limits assumed): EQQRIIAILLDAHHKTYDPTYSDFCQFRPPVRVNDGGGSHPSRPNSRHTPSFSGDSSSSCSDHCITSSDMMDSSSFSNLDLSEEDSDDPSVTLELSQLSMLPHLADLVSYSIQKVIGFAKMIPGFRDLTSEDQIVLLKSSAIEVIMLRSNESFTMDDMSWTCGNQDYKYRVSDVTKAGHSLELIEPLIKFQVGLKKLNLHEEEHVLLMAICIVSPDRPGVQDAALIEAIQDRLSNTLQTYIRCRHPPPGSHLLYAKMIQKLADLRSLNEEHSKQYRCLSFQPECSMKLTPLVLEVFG
T1 sequence (P19793 201-462 partner limits assumed): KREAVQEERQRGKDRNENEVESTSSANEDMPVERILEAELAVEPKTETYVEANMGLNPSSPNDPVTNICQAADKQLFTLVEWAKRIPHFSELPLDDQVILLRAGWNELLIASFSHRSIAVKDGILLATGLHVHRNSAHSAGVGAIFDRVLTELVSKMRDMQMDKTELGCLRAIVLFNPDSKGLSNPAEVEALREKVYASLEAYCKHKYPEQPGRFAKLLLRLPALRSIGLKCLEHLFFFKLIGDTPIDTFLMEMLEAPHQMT
Protocol: 1. The RXR-VDR Heterodimer Assay:
This assay provides the VDR activity of a test compound.
(1) Materials and Method for RXR-VDR Heterodimerization Assay:
Luciferase Assay Reagent: • Use Steady-Glo Luciferase Reagent from Promega (Cat #E2550) Consists of: a. E2533 Assay Substrate, lyopholized product and b. E2543 Assay Buffer. • Thaw at room temperature • Store Cell Harvesting Aspirate media from culture flask, rinse cells with HBSS and aspirate. Add trypsin and incubate. When cells appear detached, resuspend cells in growth media. Transfer into a new flask with fresh growth media for passaging the cells. Plate well plates and two extra plates A. Cell Count Mix the cell suspension using pipette Use Hematocytometer to count the cells Load cell suspension onto the hemocytometer chamber Count cells. […] In sterile flask add cell suspension to plating media. Mix. Add cells/well. Place the cells in the incubator. Cells should be about 75% confluent prior to transfection. DAY 2: Transfection Step 1: DNA and Media Add plain DMEM media to tubes for mixing the DNA Add the Reporter gene pFR-LUC Add the Gal4-RXR-DEF and VP16-VDR-LBD Step 2: FuGENE and Media Prepare plain DMEM media in a ubes for mixing FuGENE Add FuGENE 6 Transfection Reagent Incubate Step 3: FuGENE, DNA and Media Complex Add FuGENE Media complex from step 2 to DNA Media complex from step 1 Incubate Step 4: FuGENE, DNA and Media Complex to-well plate Add FuGENE-DNA-Media complex from step 3 to each plate Incubate. […] Day 4: Luciferase Assay Read the plates after drug treatment Remove part of media from all the wells and leave remainder Add Steady-Glo Luciferase Reagent mixture/wells Incubate Count each well using a Luminescence counter, Top Count NXT by Packard
Set a delay between plates to reduce the background.

rat osteocalcin promoter = assay: OCN (osteocalcin) promoter assay; conditions: RG-15 (ROS 17/2.8) cells
Protocol: 3. The OCN (Osteocalcin) Promoter Assay
The OCN Promoter Assay is an indicator and marker for osteoporosis. […] Preferred assay results are less than 50 nM.
(3) Materials and Method for The OCN Promoter Assay:
The activation of osteocalcin by VDR ligands was evaluated in a rat osteoblast-like cell line RG-15 (ROS 17/2.8) stably expressing rat osteocalcin promoter fused with luciferase reporter gene. […] Confluent RG-15 cells maintained in DMEM/F-12 medium (3:1) containing 5% FBS, 300 μg/ml G418 and at 37° C. under 5% CO2/95% air atmosphere were trypsinized (0.25% trypsin) and plated into white opaque 96-well cell culture plates (25000 cells/well). After 24 hr, cells (in DMEM/F-12 medium+2% FBS) were treated with various concentrations of compounds, dissolved in DMSO. The final DMSO concentration remained at 0.01% (v/v). After 48 hr treatment, the medium was removed, cells were lysed with 50 μl of lysis buffer (From Luciferase reporter assay system, Roche Diagnostics, Indianapolis, Ind.) and assayed for luciferase activity using the Luciferase Reporter Gene Assay kit from Boehringer Mannheim as per manufacturer's specifications.

KERtr cells = assay: Keratinocyte proliferation assay; conditions: Homo sapiens, 72 h, BrdU incorporation, several values separated by /, read-out: Kera. Prolif. IC50
Protocol: 5. The Keratinocyte Proliferation Assay
This Assay is indicative for the treatment of psoriasis.
(5) The Keratinocyte Proliferation Assay:
KERtr cells (Human skin keratinocyte transformed with a retrovirus vector, obtained from ATCC) were plated in 96-well flat-bottomed plates (3000 cells/well) in 100 μl keratinocyte serum free medium supplemented with bovine pituitary extract in the absence of EGF (Life Technologies, Rockville, Md.) and incubated at 37° C. for two days. The cells were treated with various concentrations of VDR ligands (ten-fold serial dilution from 10,000 nM to 0.1 nM in triplicate), dissolved in 100 μl keratinocyte serum free medium supplemented with bovine pituitary extract in the absence of EGF and incubated at 37° C. for 72 hr. […] Potency values (IC50) values were determined as the concentration (nM) of compound that elicited a half-maximal response.

[1] = Rattus norvegicus, 48 h, 48 hr treatment, luciferase, several values separated by /
[2] = 48 hr treatment, luciferase, several values separated by /

SMILES	EC50 (RXR-VDR heterodimer)	EC50 (rat osteocalcin promoter; [1])	IC50 (KERtr cells)	EC50 (rat osteocalcin promoter; Rattus norvegicus, comparison compounds)	EC50 (rat osteocalcin promoter; [2])
CCC(CC)(c1ccc(OCC(=O)C(C)(C)C)c(C)c1)c1cc2cc(C(=O)N(C)CC(=O)O)ccc2o1	9 nM	7 nM	10 nM		
Cc1cc(C2(c3ccc(OCC(=O)C(C)(C)C)c(C)c3)CCCCC2)ccc1OCC(=O)C(C)(C)C [CC, 1-(4-{1-[4-(3,3-Dimethyl-2-oxo-butoxy)-3-methyl-phenyl]-cyclohexyl}-2-methyl-phenoxy)-3,3-dimethyl-butan-2-one, reference compound]				2680 nM	
CCC(CC)(c1ccc(OCC2(C(C)(C)C)OCCO2)c(C)c1)c1cc2cc(C(=O)O)ccc2o1 [Ex 15, 2-{1-[4-(2-tert-Butyl-[1,3]dioxolan-2-ylmethoxy)-3-methyl-phenyl]-1-ethyl-propyl}-benzofuran-5-carboxylic acid]	1350 nM and 627 nM	634 nM			
CCC(CC)(c1ccc(OCC2(C(C)(C)C)OCCO2)c(C)c1)c1cc2cc(C(=O)NCC(=O)O)ccc2o1 [Ex 16, [(2-{1-[4-(2-tert-butyl-[1,3]dioxolan-2-ylmethoxy)-3-methyl-phenyl]-1-ethyl-propyl}-benzofuran-5-carbonyl)-amino]-acetic acid]	570 nM and 71 nM	27 nM			44 nM
CCC(CC)(c1ccc(OCC(O)C(C)(C)C)c(C)c1)c1cc(C)c2oc(C(=O)O)cc2c1 (stereo not drawn) [Ex 22, 5-{1-Ethyl-1-[4-(2-hydroxy-3,3-dimethyl-butoxy)-3-methyl-phenyl]-propyl}-7-methyl-benzofuran-2-carboxylic acid]	27 nM	1 nM	109 nM		
CCC(CC)(c1ccc(OCC2(C(C)(C)C)OCCO2)c(C)c1)c1cc(C)c2oc(C(=O)O)cc2c1 [Ex 23, 5-{1-[4-(2-tert-Butyl-[1,3]dioxolan-2-ylmethoxy)-3-methyl-phenyl]-1-ethylpropyl}-7-methyl-benzofuran-2-carboxylic acid]	660 nM and 320 nM	127 nM			88 nM
CCC(CC)(c1ccc(OCC2(C(C)(C)C)OCCO2)c(C)c1)c1cc(C)c2oc(C(=O)NCC(=O)O)cc2c1 [Ex 24, [(5-{1-[4-(2-tert-butyl-[1,3]dioxolan-2-ylmethoxy)-3-methyl-phenyl]-1-ethyl-propyl}-7-methyl-benzofuran-2-carbonyl)-amino]-acetic acid]	851 nM	431 nM			
CCC(CC)(c1ccc(OCC2(C(C)(C)C)OCCO2)c(C)c1)c1cc(C)c2oc(C(=O)N(C)C)cc2c1 [Ex 25, 5-{1-[4-(2-tert-Butyl-[1,3]dioxolan-2-ylmethoxy)-3-methyl-phenyl]-1-ethyl-propyl}-7-methyl-benzofuran-2-carboxylic acid dimethylamide]	67 nM	1000 nM	1000 nM		
CCC(CC)(c1ccc(OCC(=O)C(C)(C)C)c(C)c1)c1cc(C)c2oc(C(=O)N(C)C)cc2c1 [Ex 26, 5-{1-[4-(3,3-Dimethyl-2-oxo-butoxy)-3-methyl-phenyl]-1-ethyl-propyl}-7-methyl-benzofuran-2-carboxylic acid dimethylamide]		17 nM			
CCC(CC)(c1ccc(OCC(O)C(C)(C)C)c(C)c1)c1cc(C)c2oc(C(=O)N(C)C)cc2c1 (stereo not drawn) [Ex 27, 5-{1-Ethyl-1-[4-(2-hydroxy-3,3-dimethyl-butoxy)-3-methyl-phenyl]-propyl}-7-methyl-benzofuran-2-carboxylic acid dimethylamide]	154 nM and 51 nM	9 nM	> 1000 nM		17 nM
CCC(CC)(c1ccc(OCC(O)C(C)(C)C)c(C)c1)c1cc(C)c2oc(C(=O)NCC(=O)O)cc2c1 (stereo not drawn) [Ex 29, [(5-{1-Ethyl-1-[4-(2-hydroxy-3,3-dimethyl-butoxy)-3-methyl-phenyl]-propyl}-7-methyl-benzofuran-2-carbonyl)-amino]-acetic acid]	71 nM	3 nM	414 nM		
CCC(CC)(c1ccc(OCC(=O)C(C)(C)C)c(C)c1)c1ccc2oc(C(=O)N(C)C)c(C)c2c1 [Ex 36, 5-{1-[4-(3,3-dimethyl-2-oxo-butoxy)-3-methyl-phenyl]-1-ethyl-propyl}-3-methyl-benzofuran-2-carboxylic acid dimethylamide]	536 nM	210 nM			
CCC(CC)(c1ccc(OCC(=O)C(C)(C)C)c(C)c1)c1cc2ccc(OS(C)(=O)=O)cc2o1 [Ex 40, methanesulfonic acid 2-{1-[4-(3,3-dimethyl-2-oxo-butoxy)-3-methyl-phenyl]-1-ethyl-propyl}-benzofuran-6-yl ester]	80 nM				
CCC(CC)(c1ccc(OCC(=O)C(C)(C)C)c(C)c1)c1cc2cc(C(=O)OC)ccc2o1 [Ex. 1]		1 nM	71 nM		
CCC(CC)(c1ccc(OCC(O)C(C)(C)C)c(C)c1)c1cc2cc(C(=O)N(C)C)ccc2o1 (stereo not drawn) [Ex. 6, 2-{1-Ethyl-1-[4-(2-hydroxy-3,3-dimethyl-butoxy)-3-methyl-phenyl]-propyl}-benzofuran-5-carboxylic acid dimethylamide]	410 nM and 79 nM	68 nM			47 nM
CCC(CC)(c1ccc(OCC(=O)C(C)(C)C)c(C)c1)c1cc2cc(C(=O)NC(C)(C)C(=O)O)ccc2o1 [Ex. 10, 2-[(2-{1-[4-(3,3-Dimethyl-2-oxo-butoxy)-3-methyl-phenyl]-1-ethyl-propyl}-benzofuran-5-carbonyl)-amino]-2-methyl-propionic acid]	235 nM	275 nM	215 nM		
